Data from publication PMC7170309, “Imidazopyridine-fused [1,3]diazepinones: modulations of positions 2 to 4 and their impacts on the anti-melanoma activity” (Journal of Enzyme Inhibition and Medicinal Chemistry, 2020).

Experiments:
[1] = tested on: NIH-3T3 non-cancerous cells; assay: Neutral red uptake (NRU) toxicity assay, NIH-3T3; format: cell-based; settings: Mus musculus, NIH3T3, 72 h, non-cancerous mouse fibroblasts
Description: Melanoma human cancer cell line (A375 and MDA-MB-435) were obtained from ATCC. The NIH-3T3 cell line was generously gifted by the ANSM (French National Agency for Medicines and Health Products Safety, Vendargues, France). Cells were cultured in Dulbecco’s Modified Eagle Medium (DMEM, Sigma Aldrich) supplemented with 10% heat-inactivated foetal calf serum (FCS, Gibco), 2 mM glutamax (Gibco), 100 IU/mL penicillin G sodium (Sigma Aldrich), 100 lU/mL streptomycin sulphate (Sigma Aldrich). The cells were allowed to grow at 37 °C in a fully humidified atmosphere containing 5% CO2.
A viability assay was used to evaluate the cytotoxic activity on A375 and MDA-MB-435 melanoma cells as previously described. According to OCDE/ICCVAM guidance n°129, NRU assay was also used to evaluate the toxicity on the non-cancerous NIH-3T3 cells. Cells were seeded at a final concentration of 2000 cells/well (A375), 3000 cells/well (NIH-3T3) or 7500 cells/well (MDA-MB-435) in 96-well microtiter plates for 24 h. Then, cells were exposed to two negative controls (1% DMSO in culture medium (vehicle) and culture medium alone), or to different compounds freshly dissolved in DMSO, in a range of concentration from 0.01 to 40 µM (six wells per concentration). After 72 h of incubation, cells were stained with new medium containing 50 µg/mL of neutral red (3-amino-7-dimethylamino-2-methylphenazine hydrochloride, Sigma Aldrich) at 37 °C for 2 h. The neutral red medium solution was then removed and the wells were washed with PBS. Finally, 100 µL of solution containing ethanol, acetic acid and water (50/1/49 v/v/v respectively) were added into the wells and the absorbance was measured at 540 nm using the microplate reader 352 Multiscan MS (Labsystems). Cell survival rates were normalised to the absorbance values of untreated control cells. IC50 was obtained using a logistic regression model on Graphpad Prism 5.0 software. Results are given as the mean ± standard deviation (SD) of three independent experiments. Statistical analysis was performed using the Student’s t-test.
Then, all active compounds on the two melanoma cell lines (IC50 < 40 µM) were assessed on the NIH-3T3 mouse fibroblast cell line, in order to check the toxicity of our compounds on non-cancerous cells. […] As a possible modification of the mechanism of action was hypothesised for these two derivatives (see above), this phenomenon could probably be also correlated with the cytotoxicity observed on the NIH-3T3 cell line.

OVCAR-8 = assay: NCI-60 SRB assay, OVCAR-8 (Ovarian Cancer); format: cell-based, human; settings: 10 µM, 48 h; for G%: growth vs untreated control;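 on Mean G% - G%: mean growth across the NCI-60 panel minus this line's growth with positive meaning more sensitive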
Description: (§1) Primary anticancer assay was performed on a panel of 60 human cancer cell lines derived from nine neoplastic diseases, in accordance with the protocol of the Drug Evaluation Branch, National Cancer Institute, Bethesda, Maryland, USA[22]. Cells were incubated with tested compounds at 10 µM for 48 h. The growth percentage was evaluated spectrophotometrically using a protein binding dye, SRB. Results for each tested compound were reported as the percent of growth of treated cells when compared to untreated control cells.
(§2) To better compare the activity profile of these two series of compounds, compounds 5 and 8 were selected and then evaluated towards a panel of sixty cancer cell lines corresponding to nine different cancer types, i.e. leukaemia, melanoma, as well as lung, colon, central nervous system, ovarian, renal, prostate and breast cancers (NCI evaluation). Indeed, it is now well established that the growth inhibitory patterns of anticancer drugs against the NCI-60 cell line panel correlated well with their modes of action. For example, compounds that bind to tubulin have similar growth inhibition patterns regardless of which site on tubulin they bind[30]. […] Compounds were tested using the sulforhodamine B (SRB) assay that provides a direct cell density index. The amount of dye incorporated by the cells increases with the increase of the total protein biomass. Cells were incubated for 48 h with compounds at 10 µM concentration, then cell growth was evaluated spectrophotometrically and presented as the percent of untreated control cells. Values of the most sensitive cell lines were compared to those obtained with JMV5038 (Figure 4, for all data see SI).

COLO 205 = assay: NCI-60 SRB assay, COLO 205 (Colon Cancer); format: cell-based, human; settings: 10 µM, 48 h; for G%: growth vs untreated control
Description: as §1, §2

NCI-H460 = assay: NCI-60 SRB assay, NCI-H460 (NSCLC); format: cell-based, human; settings: 10 µM, 48 h; for G%: growth vs untreated control
Description: as §1, §2

OVCAR-4 = assay: NCI-60 SRB assay, OVCAR-4 (Ovarian Cancer); format: cell-based, human; settings: 10 µM, 48 h; for G%: growth vs untreated control;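 on Mean G% - G%: mean growth across the NCI-60 panel minus this line's growth with positive meaning more sensitive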
Description: as §1, §2

SK-OV-3 = assay: NCI-60 SRB assay, SK-OV-3 (Ovarian Cancer); format: cell-based, human; settings: 10 µM, 48 h; for G%: growth vs untreated control
Description: as §1, §2

MDA-MB-468 = assay: NCI-60 SRB assay, MDA-MB-468 (Breast Cancer); format: cell-based, human; settings: 10 µM, 48 h; for G%: growth vs untreated control;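 on Mean G% - G%: mean growth across the NCI-60 panel minus this line's growth with positive meaning more sensitive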
Description: as §1, §2

MCF7 = assay: NCI-60 SRB assay, MCF7 (Breast Cancer); format: cell-based, human; settings: 10 µM, 48 h; for G%: growth vs untreated control;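 on Mean G% - G%: mean growth across the NCI-60 panel minus this line's growth with positive meaning more sensitive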
Description: as §1, §2

MALME-3M = assay: NCI-60 SRB assay, MALME-3M (Melanoma); format: cell-based, human; settings: 10 µM, 48 h; for G%: growth vs untreated control
Description: as §1, §2

IGROV1 = assay: NCI-60 SRB assay, IGROV1 (Ovarian Cancer); format: cell-based, human; settings: 10 µM, 48 h; for G%: growth vs untreated control
Description: as §1, §2

HCT-116 = assay: NCI-60 SRB assay, HCT-116 (Colon Cancer); format: cell-based, human; settings: 10 µM, 48 h; for G%: growth vs untreated control
Description: as §1, §2

MDA-MB-435 = assay: NCI-60 SRB assay, MDA-MB-435 (Melanoma); format: cell-based, human; settings: MDA-MB-435, 10 µM, 48 h, SRB; for G%: growth vs untreated control
Description: as §1, §2

NCI-H226 = assay: NCI-60 SRB assay, NCI-H226 (NSCLC); format: cell-based, human; settings: 10 µM, 48 h; for G%: growth vs untreated control
Description: as §1, §2

SK-MEL-5 = assay: NCI-60 SRB assay, SK-MEL-5 (Melanoma); format: cell-based, human; settings: 10 µM, 48 h; for G%: growth vs untreated control
Description: as §1, §2

SK-MEL-28 = assay: NCI-60 SRB assay, SK-MEL-28 (Melanoma); format: cell-based, human; settings: 10 µM, 48 h; for G%: growth vs untreated control
Description: as §1, §2

A549/ATCC = assay: NCI-60 SRB assay, A549/ATCC (NSCLC); format: cell-based, human; settings: 10 µM, 48 h; for G%: growth vs untreated control
Description: as §1, §2

NCI/ADR-RES = assay: NCI-60 SRB assay, NCI/ADR-RES (Ovarian Cancer); format: cell-based, human; settings: 10 µM, 48 h; for G%: growth vs untreated control
Description: as §1, §2

HS 578T = assay: NCI-60 SRB assay, HS 578T (Breast Cancer); format: cell-based, human; settings: 10 µM, 48 h; for G%: growth vs untreated control
Description: as §1, §2

LOX IMVI = assay: NCI-60 SRB assay, LOX IMVI (Melanoma); format: cell-based, human; settings: 10 µM, 48 h; for G%: growth vs untreated control
Description: as §1, §2

UO-31 = assay: NCI-60 SRB assay, UO-31 (Renal Cancer); format: cell-based, human; settings: 10 µM, 48 h; for G%: growth vs untreated control
Description: as §1, §2

TK-10 = assay: NCI-60 SRB assay, TK-10 (Renal Cancer); format: cell-based, human; settings: 10 µM, 48 h; for G%: growth vs untreated control
Description: as §1, §2

With C[C@@H]1NC(c2csc3ccccc23)=Nc2nc3ccccn3c2C1=O [Compound 8, (4S)-4-methyl-2-benzothiophen-3-yl-3,4-dihydro-5H-pyrido[1’,2’:1,2]imidazo[4,5-d][1,3]diazepin-5-one] the IC50 [1] was over 40 µM, the “Mean G% - G%” value (OVCAR-8) was -9,67% and the G% (OVCAR-8) was 84,54%. For the same molecule, the “Mean G% - G%” value (COLO 205) was -25,43%, the G% (COLO 205) was 100,30% and the “Mean G% - G%” value (NCI-H460) was -10,32%. For the same molecule, the G% (NCI-H460) was 85,19%, the “Mean G% - G%” value (OVCAR-4) was 0,79% and the G% (OVCAR-4) was 74,08%. The “Mean G% - G%” value (SK-OV-3) was 7,58%, the G% (SK-OV-3) was 67,29% and the “Mean G% - G%” value (MDA-MB-468) was 4,18%. For the same molecule, the G% (MDA-MB-468) was 70,69%, the “Mean G% - G%” value (MCF7) was 24,29% and the G% (MCF7) was 50,58%. For the same molecule, the “Mean G% - G%” value (MALME-3M) was -0,21%, the G% (MALME-3M) was 75,08% and the “Mean G% - G%” value (IGROV1) was 14,89%. The G% (IGROV1) was 59,98%, the “Mean G% - G%” value (HCT-116) was 2,74% and the G% (HCT-116) was 72,13%. The “Mean G% - G%” value (MDA-MB-435) was -0,17%, the G% (MDA-MB-435) was 75,04% and the “Mean G% - G%” value (NCI-H226) was 2,63%. For the same molecule, the G% (NCI-H226) was 72,24%, the “Mean G% - G%” value (SK-MEL-5) was 12,92% and the G% (SK-MEL-5) was 61,95%. The “Mean G% - G%” value (SK-MEL-28) was -23,33%, the G% (SK-MEL-28) was 98,20% and the “Mean G% - G%” value (A549/ATCC) was 8,10%. For the same molecule, the G% (A549/ATCC) was 66,77%, the “Mean G% - G%” value (NCI/ADR-RES) was -2,84% and the G% (NCI/ADR-RES) was 77,71%. For the same molecule, the “Mean G% - G%” value (HS 578T) was 15,40%, the G% (HS 578T) was 59,47% and the “Mean G% - G%” value (LOX IMVI) was -18,67%. The G% (LOX IMVI) was 93,54%, the “Mean G% - G%” value (UO-31) was 22,87% and the G% (UO-31) was 52,00%. For the same molecule, the “Mean G% - G%” value (TK-10) was -36,86% and the G% (TK-10) was 111,73%.
In the case of C[C@@H]1NC(c2ccc(Br)cc2)=Nc2nc3ccccn3c2C1=O [JMV5038], the IC50 [1] is reported as over 100 µM, the “Mean G% - G%” value (OVCAR-8) is reported as -18,28% and the G% (OVCAR-8) is reported as 72,52%. The “Mean G% - G%” value (COLO 205) was 27,91%, the G% (COLO 205) was 26,33% and the “Mean G% - G%” value (NCI-H460) was 21,74%. The G% (NCI-H460) was 32,50%, the “Mean G% - G%” value (OVCAR-4) was -23,22% and the G% (OVCAR-4) was 77,46%. For the same molecule, the “Mean G% - G%” value (SK-OV-3) was -17,78%, the G% (SK-OV-3) was 72,02% and the “Mean G% - G%” value (MDA-MB-468) was 54,74%. For the same molecule, the G% (MDA-MB-468) was -0,50%, the “Mean G% - G%” value (MCF7) was 33,29% and the G% (MCF7) was 20,95%. For the same molecule, the “Mean G% - G%” value (MALME-3M) was 2,49%, the G% (MALME-3M) was 51,75% and the “Mean G% - G%” value (IGROV1) was 11,16%. For the same molecule, the G% (IGROV1) was 43,08%, the “Mean G% - G%” value (HCT-116) was 25,02% and the G% (HCT-116) was 29,22%. For the same molecule, the “Mean G% - G%” value (MDA-MB-435) was 67,26%, the G% (MDA-MB-435) was -13,02% and the “Mean G% - G%” value (NCI-H226) was -14,04%. For the same molecule, the G% (NCI-H226) was 68,28%, the “Mean G% - G%” value (SK-MEL-5) was 22,34% and the G% (SK-MEL-5) was 31,90%. The “Mean G% - G%” value (SK-MEL-28) was -11,91%, the G% (SK-MEL-28) was 66,15% and the “Mean G% - G%” value (A549/ATCC) was -0,42%. For the same molecule, the G% (A549/ATCC) was 54,66%, the “Mean G% - G%” value (NCI/ADR-RES) was 14,87% and the G% (NCI/ADR-RES) was 39,37%. The “Mean G% - G%” value (HS 578T) was -17,10%, the G% (HS 578T) was 71,34% and the “Mean G% - G%” value (LOX IMVI) was 1,80%. For the same molecule, the G% (LOX IMVI) was 52,44%, the “Mean G% - G%” value (UO-31) was -7,77% and the G% (UO-31) was 62,01%. For the same molecule, the “Mean G% - G%” value (TK-10) was -55,42% and the G% (TK-10) was 109,66%.
